Measurements from patent publication US5416070A, “Composition for macrophage activation” (ImmunoTherapeutics, Inc., priority 1990, dated 1995).

Key:
Assay type in all cases: cell-based
[1] = tested on: human peripheral blood monocytes; experiment: Activation of monocytes in vitro measured by production of tumor necrosis factor (ELISA); conditions: for TNF (pg/ml) at given Concentration of Compound: 24 Hours
Method: (§1) Human peripheral blood monocytes were isolated by density gradient centrifugation as noted in Example 13. The cell number was adjusted to 5×10^5 cells per ml in RPM 1640 media containing 5% human AB negative serum. One ml containing 5×10^5 cells were placed in individual wells of a 24-well Plastek tissue culture plate. Various drugs in a volume of 0.5 ml were added at time zero. The cells were incubated at 37° C. in a 5% CO2 atmosphere. Aliquots (0.1 ml) of the supernatant were removed at 24 hours and frozen at -80° C. These samples were subsequently assayed for tumor necrosis factor (TNF) activity using a commercially available ELISA Assay from T-Cell Sciences (Cambridge, Mass.).
Human peripheral blood monocytes were isolated by density gradient centrifugation as described in Example 13. The cells were plated in 24-well microliter plates as described in Example 33. The compounds Were prepared in liposomes as described in Example 10, and assayed for TNF production, as described in Example 33. The results are set forth in Table 5, and show significant levels of TNF compared to controls.
as §1, with “of” for “of a”, “zero. The compounds were also formulated in liposomes as described in Example 10, and added in a volume of 0.5 ml to individual wells of a 24-well Plastek tissue culture plate.” for “zero.”, “-20°” for “-80°”, “TNF as described in Example 33 and Interleukin-1-beta (IL-1β)” for “tumor necrosis factor (TNF) activity”, “kit” for “Assay”, “Cistron (Pine Brook, N.J.).” for “T-Cell Sciences (Cambridge, Mass.).”

[2] = tested on: human peripheral blood monocytes; experiment: Activation of monocytes in vitro measured by production of Interleukin-1-beta (ELISA); conditions: 24 Hours
Method: as §1, with “of” for “of a”, “zero. The compounds were also formulated in liposomes as described in Example 10, and added in a volume of 0.5 ml to individual wells of a 24-well Plastek tissue culture plate.” for “zero.”, “-20°” for “-80°”, “TNF as described in Example 33 and Interleukin-1-beta (IL-1β)” for “tumor necrosis factor (TNF) activity”, “kit” for “Assay”, “Cistron (Pine Brook, N.J.).” for “T-Cell Sciences (Cambridge, Mass.).”

[3] = tested on: Human peripheral blood mononuclear cells; experiment: Activation of monocytes in vitro measured by in vitro tumor cell cytotoxicity
Method: Human peripheral blood mononuclear cells were isolated by density gradient centrifugation on 46% Percoll. 1×10^5 of the mononuclear cells were plated onto Falcon microliter plates and allowed to adhere for two hours. The non-adherent cells were removed and fresh media added. The cells were allowed to incubate for 24 hours after which various concentrations of the drug either alone or incorporated in liposomes was added. After 24 hours, the plates were washed and 1×10^4 I^125 labelled target cells were added. Following an additional 72 hours of coincubation, the plates were washed and the residual radioactivity determined. The specific cytotoxicity was calculated from the formula: [formula] The results of cytotoxicity assay of various compounds alone or incorporated in liposomes at various concentrations is given in Table 6.

[4] = Table 9, Experiment 2, 0.1 μg/ml
[5] = Table 9, Experiment 2, 1.0 μg/ml
[6] = Table 9, Experiment 2, 10.0 μg/ml
[7] = Experiment 3, free drug in saline 0.1 μg/ml, 24 hours
[8] = Experiment 3, free drug in saline 1.0 μg/ml, 24 hours
[9] = Experiment 3, free drug in saline 10.0 μg/ml, 24 hours
[10] = Table 7, Experiment 1, 0.01 μg/ml
[11] = Table 7, Experiment 1, 0.1 μg/ml
[12] = Table 7, Experiment 1, 1.0 μg/ml
[13] = Table 7, Experiment 1, 10.0 μg/ml
[14] = Table 8, Experiment 1, 0.01 μg/ml
[15] = Table 8, Experiment 1, 0.1 μg/ml
[16] = Table 8, Experiment 1, 1.0 μg/ml
[17] = Table 8, Experiment 1, 10.0 μg/ml
[18] = PC/PG liposomes (7:3), 0.1 μg/ml
[19] = PC/PG liposomes (7:3), 1.0 μg/ml
[20] = PC/PG liposomes (7:3), 10.0 μg/ml
[21] = no formulation given (drug alone), 0.1 μg/ml
[22] = no formulation given (drug alone), 1.0 μg/ml
[23] = no formulation given (drug alone), 10.0 μg/ml

SMILES | TNF Level [1, 7] [pg/mL] | TNF Level [1, 8] [pg/mL] | TNF Level [1, 9] [pg/mL] | TNF (pg/ml) at given Concentration of Compound [1, 11] [pg/mL] | TNF (pg/ml) at given Concentration of Compound [1, 12] [pg/mL] | TNF (pg/ml) at given Concentration of Compound [1, 13] [pg/mL] | IL-1-beta (pg/ml) at given Concentration of Compound [2, 14] [pg/mL] | IL-1-beta (pg/ml) at given Concentration of Compound [2, 15] [pg/mL] | IL-1-beta (pg/ml) at given Concentration of Compound [2, 16] [pg/mL] | IL-1-beta (pg/ml) at given Concentration of Compound [2, 17] [pg/mL] | other results
CCCCCCCCCCCCCCCC(=O)OCC(COC(=O)C(NC(=O)CCC(NC(=O)C(C)NC(=O)C(C)OC1C(NC(C)=O)C(O)OC(CO)C1OC1OC(CO)C(O)C(O)C1NC(C)=O)C(N)=O)C(C)C)OC(=O)CCCCCCCCCCCCCCC [IIG, GlcNAcMurNAc-F-Ala-D-isoGln-F-Val-DpG] |  |  |  |  |  |  |  |  |  |  | TNF (pg/ml) at given Concentration of Compound [1, 4]: 1150 pg/mL; TNF (pg/ml) at given Concentration of Compound [1, 5]: 1500 pg/mL; TNF (pg/ml) at given Concentration of Compound [1, 6]: 1400 pg/mL
CCCCCCCCCCCCCCCC(=O)OCC(COC(=O)C(C)NC(=O)CCC(NC(=O)C(C)NC(=O)C(C)OC1C(NC(C)=O)C(O)OC(CO)C1OC1OC(CO)C(O)C(O)C1NC(C)=O)C(N)=O)OC(=O)CCCCCCCCCCCCCCC [Compound IIC, GlcNAcMurNAc-D-Ala-D-isoGln-D-Ala-DPG] |  |  |  |  |  |  |  |  |  |  | TNF Level ([1]; Experiment 4, free drug in saline 0.1 μg/ml, 24 hours): 40 pg/mL; TNF Level ([1]; Experiment 4, free drug in saline 1.0 μg/ml, 24 hours): 110 pg/mL; TNF Level ([1]; Experiment 4, free drug in saline 10.0 μg/ml, 24 hours): 450 pg/mL
CCCCCCCCCCCCCCCC(=O)OCC(COC(=O)C(C)NC(=O)CCC(NC(=O)C(C)NC(=O)C(C)OC1C(NC(C)=O)C(O)OC(CO)C1OC1OC(CO)C(O)C(O)C1NC(C)=O)C(N)=O)OC(=O)CCCCCCCCCCCCCCC [Compound IIB, 4-O-[2-acetamido-2-deoxy-β-D-glucopyranosyl]-2-acetamido-2-deoxy-3-O-[D-2-propanoyl-L-alanyl-D-isoglutaminyl-D-alanyl-1,2-dipalmitoyl-sn-glycerol]-D-glucopyranose] | 250 | 500 | 1600 |  |  |  |  |  |  |  | 
CCCCCCCCCCCCCCCC(=O)OCC(COC(=O)CCCCCCCCCCCCCCC)NC(=O)C(C)NC(=O)CCC(NC(=O)C(C)NC(=O)C(C)OC1C(NC(C)=O)C(O)OC(CO)C1OC1OC(CO)C(O)C(O)C1NC(C)=O)C(N)=O [Compound IB, GlcNAcMurNAc-L-Ala-D-isoGln-D-Ala-NHDPG] | 180 | 350 | 1980 |  |  |  |  |  |  |  | 
CCCCCCCCCCCCCCCC(=O)OCC(COC(=O)C(C)NC(=O)CCC(NC(=O)C(NC(=O)C(C)OC1C(NC(C)=O)C(O)OC(CO)C1OC1OC(CO)C(O)C(O)C1NC(C)=O)C(C)C)C(N)=O)OC(=O)CCCCCCCCCCCCCCC [IIF, GlcNAcMurNAc-F-Val-D-isoGln-F-Ala-DpG] |  |  |  | 440 | 480 | 400 | 220 | 212 | 260 | 260 | TNF (pg/ml) at given Concentration of Compound [1, 10]: 510 pg/mL
CCCCCCCCCCCCCCCC(=O)OCC(COC(=O)C(C)NC(=O)CCC(NC(=O)C(CO)NC(=O)C(C)OC1C(NC(C)=O)C(O)OC(CO)C1OC1OC(CO)C(O)C(O)C1NC(C)=O)C(N)=O)OC(=O)CCCCCCCCCCCCCCC [IIE, GlcNAcMurNAc-F-Ser-D-isoGln-F-Ala-DPG] |  |  |  |  |  |  |  |  |  |  | TNF (pg/ml) at given Concentration of Compound [1, 4]: 150 pg/mL; TNF (pg/ml) at given Concentration of Compound [1, 5]: 800 pg/mL; TNF (pg/ml) at given Concentration of Compound [1, 6]: 1500 pg/mL
CCCCCCCCCCCCCCCC(=O)OCC(COC(=O)C(C)NC(=O)CCC(NC(=O)C(NC(=O)C(C)OC1C(NC(C)=O)C(O)OC(CO)C1OC1OC(CO)C(O)C(O)C1NC(C)=O)C(C)O)C(N)=O)OC(=O)CCCCCCCCCCCCCCC [IID, GlcNAcMurNAc-F-Thr-D-isoGln-F-Ala-DPG] |  |  |  | 320 | 1080 | 2150 | 70 | 14 | 170 | 690 | TNF (pg/ml) at given Concentration of Compound [1, 10]: 70 pg/mL
CC(=O)NC1C(OC2C(CO)OC(O)C(NC(C)=O)C2OC(C)C(=O)NC(C(=O)NC(CCC(=O)O)C(N)=O)C(C)O)OC(CO)C(O)C1O [GlcNAcMurNAc-L-Thr-D-isoGln] |  |  |  | 440 | 1050 | 1050 | 50 | 70 | 230 | 630 | TNF (pg/ml) at given Concentration of Compound [1, 10]: 200 pg/mL
CCCCCCCCCCCCCCCC(=O)OCC(COC(=O)CCCCCCCCCCCCCCC)NC(=O)C(C)NC(=O)CCC(NC(=O)C(NC(=O)C(C)OC1C(NC(C)=O)C(O)OC(CO)C1OC1OC(CO)C(O)C(O)C1NC(C)=O)C(C)O)C(N)=O [ID, GlcNAcMurNAc-F-Thr-D-isoGln-F-Ala-NHDPG] |  |  |  | 0 | 250 | 1060 | 10 | 16 | 8 | 90 | 
CCCCCCCCCCCCCCCC(=O)OCC(COC(=O)CCCCCCCCCCCCCCC)NC(=O)C(C)NC(=O)CCC(NC(=O)C(C)NC(=O)C(C)OC1C(NC(C)=O)C(O)OC(CO)C1OC1OC(CO)C(O)C(O)C1NC(C)=O)C(N)=O [Compound IC, GlcNAcMurNAc-D-Ala-D-isoGln-D-Ala-NHDPG] | 280 | 300 | 250 |  |  |  |  |  |  |  | Cytotoxicity [3, 18]: 10.0%; Cytotoxicity [3, 19]: 4.0%; Cytotoxicity [3, 20]: 12.0%; Cytotoxicity [3, 21]: 5.0%; Cytotoxicity [3, 22]: 16.0%; Cytotoxicity [3, 23]: 15.0%
CCCCCCCCCCCCCCCC(=O)OCC(COC(=O)CCCCCCCCCCCCCCC)NC(=O)C(C)NC(=O)CCC(NC(=O)C(C)NC(=O)C(C)OC1C(NC(C)=O)C(O)OC(CO)C1OC1OC(CO)C(O)C(O)C1NC(C)=O)C(N)=O [Compound IA, 4-O-[2-acetamido-2-deoxy-β-D-glucopyranosyl]-2-acetamido-2-deoxy-3-O-[D-2-propanoyl-L-alanyl-D-isoglutaminyl-L-alanyl-2-(1,3-dipalmitoyloxy)propylamide]-D-glucopyranose] | 280 | 1000 | 1680 |  |  |  |  |  |  |  | TNF Level ([1]; Table 5, compound incorporated in liposomes, 0.1 μg/ml): 430 pg/mL; TNF Level ([1]; Table 5, compound incorporated in liposomes, 1.0 μg/ml): 800 pg/mL; TNF Level ([1]; Table 5, compound incorporated in liposomes, 10.0 μg/ml): 750 pg/mL; Cytotoxicity [3, 18]: 7.0%; Cytotoxicity [3, 19]: 7.0%; Cytotoxicity [3, 20]: 6.0%; Cytotoxicity ([3]; PC/PS liposomes (7:3), 0.1 μg/ml): 8.0%; Cytotoxicity ([3]; PC/PS liposomes (7:3), 1.0 μg/ml): 5.0%; Cytotoxicity ([3]; PC/PS liposomes (7:3), 10.0 μg/ml): 19.0%; Cytotoxicity [3, 21]: 1.0%; Cytotoxicity [3, 22]: 4.0%; Cytotoxicity [3, 23]: 3.0%
